Measurements reported in US20260265238A1, “COMPOUNDS AND PHARMACEUTICAL COMPOSITIONS THAT DEGRADE SWI/SNF-RELATED MATRIX-ASSOCIATED ACTIN-DEPENDENT REGULATOR OF CHROMATIN SUBFAMILY A” (Plexium, Inc., priority 2023, published 2026).

Legend:
[1] = target: T1, SMARCA2-HiBiT HeLa cells (protein which is expressed from the SMARCA2 gene) (Homo sapiens, UniProt P51531); test: SMARCA2 degradation assay (HiBiT-fusion HeLa cell line, 24 h, luminescence); type: cell-based
T1 construct: protein which is expressed from the SMARCA2 and SMARCA4 genes; host or cells: HeLa (SMARCA2-HiBiT engineered line)
T1 sequence (P51531 whole entry, the tested form may be a part): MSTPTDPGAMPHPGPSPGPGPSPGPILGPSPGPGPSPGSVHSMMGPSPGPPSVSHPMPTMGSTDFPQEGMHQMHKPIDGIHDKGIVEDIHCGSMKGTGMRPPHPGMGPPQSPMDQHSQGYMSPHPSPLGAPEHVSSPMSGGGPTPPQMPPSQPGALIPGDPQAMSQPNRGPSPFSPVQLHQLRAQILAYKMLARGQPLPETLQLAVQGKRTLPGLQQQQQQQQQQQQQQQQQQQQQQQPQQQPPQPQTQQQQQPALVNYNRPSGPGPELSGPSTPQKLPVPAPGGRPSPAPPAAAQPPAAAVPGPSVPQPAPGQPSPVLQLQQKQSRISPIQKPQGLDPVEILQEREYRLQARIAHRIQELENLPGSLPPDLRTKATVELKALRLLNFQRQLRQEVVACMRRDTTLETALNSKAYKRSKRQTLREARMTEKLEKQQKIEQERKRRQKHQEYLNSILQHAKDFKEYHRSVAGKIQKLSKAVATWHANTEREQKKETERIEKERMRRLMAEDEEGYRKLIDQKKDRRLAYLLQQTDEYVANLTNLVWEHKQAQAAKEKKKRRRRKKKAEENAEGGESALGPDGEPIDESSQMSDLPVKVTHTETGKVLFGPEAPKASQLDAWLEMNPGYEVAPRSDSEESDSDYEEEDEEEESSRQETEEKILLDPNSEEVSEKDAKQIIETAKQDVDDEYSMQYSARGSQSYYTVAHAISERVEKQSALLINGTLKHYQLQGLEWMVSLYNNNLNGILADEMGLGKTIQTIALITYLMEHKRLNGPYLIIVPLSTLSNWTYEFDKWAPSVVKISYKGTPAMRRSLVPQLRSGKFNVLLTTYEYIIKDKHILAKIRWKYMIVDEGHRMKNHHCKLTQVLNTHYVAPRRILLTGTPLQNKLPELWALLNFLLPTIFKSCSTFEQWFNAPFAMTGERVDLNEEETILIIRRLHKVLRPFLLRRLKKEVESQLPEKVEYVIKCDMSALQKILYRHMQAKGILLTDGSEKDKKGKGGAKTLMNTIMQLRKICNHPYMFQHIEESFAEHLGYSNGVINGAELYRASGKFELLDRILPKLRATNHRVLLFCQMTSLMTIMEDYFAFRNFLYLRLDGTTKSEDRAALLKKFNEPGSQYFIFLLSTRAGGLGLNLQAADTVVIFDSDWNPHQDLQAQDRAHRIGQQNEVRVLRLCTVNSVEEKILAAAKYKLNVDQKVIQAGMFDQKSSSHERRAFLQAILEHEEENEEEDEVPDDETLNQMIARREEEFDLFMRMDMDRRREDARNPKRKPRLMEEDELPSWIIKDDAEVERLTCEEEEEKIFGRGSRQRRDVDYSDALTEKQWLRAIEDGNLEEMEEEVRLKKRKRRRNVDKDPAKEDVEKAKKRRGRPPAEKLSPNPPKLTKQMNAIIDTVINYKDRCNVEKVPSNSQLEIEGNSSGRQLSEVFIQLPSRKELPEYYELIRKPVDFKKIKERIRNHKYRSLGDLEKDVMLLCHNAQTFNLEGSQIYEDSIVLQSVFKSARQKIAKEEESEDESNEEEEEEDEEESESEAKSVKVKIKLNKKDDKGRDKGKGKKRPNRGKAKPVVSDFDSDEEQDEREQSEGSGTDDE
How it was run: (§1)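 In this 24-hour cellular degradation readout, HiBiT-tagged HeLa lines received compound at up to typically 10 μM down to 300 pM in 10 points. After lysis with LgBiT and substrate, luminescence signals were used to build dose-response curves for DC50.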

[2] = target: T2, SMARCA4-HiBiT HeLa cells (protein which is expressed from the SMARCA4 gene) (Homo sapiens, UniProt P51532); test: SMARCA4 degradation assay (HiBiT-fusion HeLa cell line, 24 h, luminescence); type: cell-based
T2 construct: protein which is expressed from the SMARCA2 and SMARCA4 genes; host or cells: HeLa (SMARCA4-HiBiT engineered line)
T2 sequence (P51532 whole entry, the tested form may be a part): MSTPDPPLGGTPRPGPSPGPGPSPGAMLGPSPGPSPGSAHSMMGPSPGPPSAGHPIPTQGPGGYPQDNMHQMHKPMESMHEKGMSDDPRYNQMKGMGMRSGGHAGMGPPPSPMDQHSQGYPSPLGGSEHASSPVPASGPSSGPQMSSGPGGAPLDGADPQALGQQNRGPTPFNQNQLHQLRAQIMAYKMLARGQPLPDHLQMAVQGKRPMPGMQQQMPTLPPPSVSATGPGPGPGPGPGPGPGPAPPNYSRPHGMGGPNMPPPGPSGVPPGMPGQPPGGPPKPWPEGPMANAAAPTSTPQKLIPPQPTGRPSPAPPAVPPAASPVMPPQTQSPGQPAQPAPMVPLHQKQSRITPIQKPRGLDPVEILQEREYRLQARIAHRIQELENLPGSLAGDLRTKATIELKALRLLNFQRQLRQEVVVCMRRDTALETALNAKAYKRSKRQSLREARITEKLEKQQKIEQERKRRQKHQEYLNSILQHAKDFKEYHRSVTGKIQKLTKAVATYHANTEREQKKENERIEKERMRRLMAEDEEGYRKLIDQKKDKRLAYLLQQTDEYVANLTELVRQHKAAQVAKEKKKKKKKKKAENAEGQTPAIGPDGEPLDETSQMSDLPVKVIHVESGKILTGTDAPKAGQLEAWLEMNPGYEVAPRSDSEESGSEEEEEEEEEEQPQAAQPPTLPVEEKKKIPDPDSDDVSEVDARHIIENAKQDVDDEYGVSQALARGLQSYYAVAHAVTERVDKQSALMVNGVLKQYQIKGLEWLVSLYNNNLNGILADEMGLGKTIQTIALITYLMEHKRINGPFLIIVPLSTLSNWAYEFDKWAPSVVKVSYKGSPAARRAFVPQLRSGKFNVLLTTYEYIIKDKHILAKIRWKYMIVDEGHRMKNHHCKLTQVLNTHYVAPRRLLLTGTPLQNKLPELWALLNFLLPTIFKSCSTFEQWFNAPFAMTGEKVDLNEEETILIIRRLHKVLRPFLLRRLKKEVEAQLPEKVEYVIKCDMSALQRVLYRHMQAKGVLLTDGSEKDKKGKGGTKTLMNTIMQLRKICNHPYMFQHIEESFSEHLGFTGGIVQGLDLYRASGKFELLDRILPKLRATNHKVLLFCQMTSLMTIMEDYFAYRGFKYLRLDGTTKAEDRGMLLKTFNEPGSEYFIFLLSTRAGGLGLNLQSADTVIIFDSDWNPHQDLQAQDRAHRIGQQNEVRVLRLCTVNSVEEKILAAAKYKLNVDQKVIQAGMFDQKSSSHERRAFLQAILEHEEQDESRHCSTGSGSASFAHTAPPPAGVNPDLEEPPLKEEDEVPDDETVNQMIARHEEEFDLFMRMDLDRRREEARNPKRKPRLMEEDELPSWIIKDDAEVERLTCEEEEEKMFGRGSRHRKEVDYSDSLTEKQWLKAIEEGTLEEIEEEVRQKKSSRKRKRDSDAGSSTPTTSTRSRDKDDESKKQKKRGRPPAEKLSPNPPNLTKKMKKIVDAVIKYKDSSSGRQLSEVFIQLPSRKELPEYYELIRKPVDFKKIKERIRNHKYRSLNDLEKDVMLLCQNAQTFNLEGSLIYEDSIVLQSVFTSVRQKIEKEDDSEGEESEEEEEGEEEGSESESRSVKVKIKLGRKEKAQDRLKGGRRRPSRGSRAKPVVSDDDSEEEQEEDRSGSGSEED
How it was run: as §1

| SMILES | DC50 [1] [nM] | SMARCA2 % Degradation @ 1 μM ([1]; @ 1 μM) | DC50 [2] [nM] | inhibition at 1 µM ([2]; @ 1 μM) [%] | SMARCA4 % Degradation @ 1 μM ([2]; @ 1 μM) | SMARCA2 % Degradation @ 1 μM ([1]; 1 μM) | inhibition at 1 µM ([2]; 1 μM) [%] |
| --- | --- | --- | --- | --- | --- | --- | --- |
| CN1C(=O)NC2(CCN(CC#Cc3nccc(N4CCCN(c5cc(-c6ccccc6O)nnc5N)CC4)n3)CC2)C1=O [Compound P-362, 8-[3-(4-{4-[3-amino-6-(o-hydroxyphenyl)-4-pyridazinyl]-1,4-diazepan-1-yl}-2-pyrimidinyl)-2-propynyl]-3-methyl-1,3,8-triaza-2,4-spiro [4.5]decanedione] | 50 to 500 | ++ (++=30-70%) | 500 to 5000 | 30 to 70 |  |  |  |
| Nc1nnc(-c2ccccc2O)cc1N1CCCN(c2ccnc(C#CCN3CCn4c(nnc4C(F)(F)F)C3)n2)CC1 [Compound P-363, 0-{6-amino-5-[4-(2-{3-[3-(trifluoromethyl)-4,5,6,7-tetrahydro-1,2,3a,6-tetraaza-6-indenyl]-1-propynyl}-4-pyrimidinyl)-1,4-diazepan-1-yl]-3-pyridaziny1} phenol] | 500 to 5000 | ++ (++=30-70%) | 500 to 5000 | 30 to 70 |  |  |  |
| Nc1nnc(-c2ccccc2O)cc1N1CCCN(c2ccnc(C#CCN3CC(=O)NC(=O)C3)n2)CC1 [Compound P-364, 4-[3-(4-{4-[3-amino-6-(o-hydroxyphenyl)-4-pyridazinyl]-1,4-diazepan-1-yl}-2-pyrimidinyl)-2-propynyl]-2,6-piperazinedione] | 500 to 5000 | ++ (++=30-70%) | 500 to 5000 | < 30 |  |  |  |
| Nc1nnc(-c2ccccc2O)cc1N1CCCN(c2ccnc(C#CCN3CCN(C(=O)C4CC4)CC3)n2)CC1 [Compound P-365, {4-[3-(4-{4-[3-amino-6-(o-hydroxyphenyl)-4-pyridaziny1]-1,4-diazepan-1-yl}-2-pyrimidinyl)-2-propynyl]-1-piperazinyl}cyclopropylmethanone] | 500 to 5000 | ++ (++=30-70%) | 500 to 5000 | 30 to 70 |  |  |  |
| Nc1nnc(-c2ccccc2O)cc1N1CCCN(c2ccnc(C#CCN3CCCC3)n2)CC1 [Compound P-366, 0-[6-amino-5-(4-{2-[3-(1-pyrrolidinyl)-1-propynyl]-4-pyrimidinyl}-1,4-diazepan-1-yl)-3-pyridazinyl]phenol] | 50 to 500 | +++ (+++=>70%) | 50 to 500 | > 70 |  |  |  |
| Nc1nnc(-c2cc(F)ccc2O)cc1N1CCCN(c2ccnc(C#CCNC(=O)c3cc4ncccn4n3)n2)CC1 [Compound P-367, N-[3-(4-{4-[3-amino-6-(5-fluoro-2-hydroxyphenyl)-4-pyridazinyl]-1,4-diazepan-1-y1}-2-pyrimidinyl)-2-propynyl]-1,4,7a-triaza-2-indenecarboxamide] | 500 to 5000 | ++ (++=30-70%) | 500 to 5000 | < 30 |  |  |  |
| CC(C)(C)OC(=O)NC1CCN(CC#Cc2nccc(N3C4CCC3CN(c3cnnc(-c5ccccc5O)c3)C4)n2)CC1 [Compound P-368, tert-butyl-1-[3-(4-{3-[6-(o-hydroxyphenyl)-4-pyridazinyl]-3,8-diazabicyclo[3.2.1]oct-8-y1}-2-pyrimidinyl)-2-propynyl]-4-piperidylaminoformylate] | 50 to 500 | ++ (++=30-70%) | 50 to 500 |  | ++ (++=30-70%) |  |  |
| Oc1ccccc1-c1cc(N2CC3CCC(C2)N3c2ccnc(C#CCN3CCCCC3)n2)cnn1 [Compound P-369, 0-(5-{8-[2-(3-piperidino-1-propynyl)-4-pyrimidinyl]-3,8-diazabicyclo[3.2.1]oct-3-y1}-3-pyridazinyl)phenol] | < 50 | ++ (++=30-70%) | 500 to 5000 | < 30 |  |  |  |
| Nc1nnc(-c2ccccc2O)cc1N1CCCN(c2ccnc(C#CCN3CCOC4(CCCC4)C3)n2)CC1 [Compound P-370, 0-{6-amino-5-[4-(2-{3-(6-oxa-9-aza-9-spiro[4.5]decyl)-1-propynyl}-4-pyrimidinyl)-1,4-diazepan-1-yl]-3-pyridazinyl}phenol] | 50 to 500 | +++ (+++=>70%) | 50 to 500 | 30 to 70 |  |  |  |
| CC(C)(C)OC(=O)N1CC(C#Cc2nccc(N3CCCN(c4cc(-c5ccccc5O)nnc4N)CC3)n2)C1 [Compound P-371, tert-butyl 3-[2-(4-{4-[3-amino-6-(o-hydroxyphenyl)-4-pyridaziny1]-1,4-diazepan-1-yl}-2-pyrimidinyl)ethynyl]-1-azetidinecarboxylate] | 50 to 500 | +++ (+++=>70%) | 50 to 500 | 30 to 70 |  |  |  |
| Nc1nnc(-c2ccccc2O)cc1N1CCCN(c2ccnc(C#CCN3CCCC3=O)n2)CC1 [Compound P-372, 1-[3-(4-{4-[3-amino-6-(o-hydroxyphenyl)-4-pyridaziny1]-1,4-diazepan-1-y1}-2-pyrimidinyl)-2-propynyl]-2-pyrrolidinone] | 50 to 500 | +++ (+++=>70%) | 50 to 500 | 30 to 70 |  |  |  |
| Nc1nnc(-c2ccccc2O)cc1N1CCCN(c2ccnc(C#CCN3CCCCC3)n2)CC1 [Compound P-373, 0-(6-amino-5-{4-[2-(3-piperidino-1-propynyl)-4-pyrimidinyl]-1,4-diazepan-1-yl}-3-pyridazinyl)phenol] | 50 to 500 | +++ (+++=>70%) | 50 to 500 | 30 to 70 |  |  |  |
| Nc1nnc(-c2ccccc2O)cc1N1CCCN(c2ccnc(C#CCN3CCOC3=O)n2)CC1 [Compound P-374, 3-[3-(4-{4-[3-amino-6-(o-hydroxyphenyl)-4-pyridazinyl]-1,4-diazepan-1-yl}-2-pyrimidinyl)-2-propynyl]-1,3-oxazolidin-2-one] | 50 to 500 | +++ (+++=>70%) | 50 to 500 | 30 to 70 |  |  |  |
| Nc1nnc(-c2ccccc2O)cc1N1CCCN(c2ccnc(C#CCN3C(=O)c4ccccc4C3=O)n2)CC1 [Compound P-375, 2-[3-(4-{4-[3-amino-6-(o-hydroxyphenyl)-4-pyridaziny1]-1,4-diazepan-1-yl}-2-pyrimidinyl)-2-propynyl]-1,3-isoindolinedione] | 50 to 500 | +++ (+++=>70%) | 50 to 500 |  | ++ (++=30-70%) |  |  |
| Nc1nnc(-c2ccccc2O)cc1N1CCCN(c2ccnc(C#CCN3C[C@H]4C[C@@H]3CO4)n2)CC1 [Compound P-376, 0-(5-{4-[2-(3-{(1R,4R)-2-oxa-5-azabicyclo[2.2.1]hept-5-y1}-1-propynyl)-4-pyrimidinyl]-1,4-diazepan-1-y1}-6-amino-3-pyridazinyl)phenol] | 50 to 500 | ++ (++=30-70%) | 500 to 5000 | 30 to 70 |  |  |  |
| Nc1nnc(-c2ccccc2O)cc1N1CCCN(c2ccnc(C#CCN3C[C@@H]4C[C@H]3CO4)n2)CC1 [Compound P-377, 0-(5-{4-[2-(3-{(1S,4S)-2-oxa-5-azabicyclo[2.2.1]hept-5-yl}-1-propynyl)-4-pyrimidinyl]-1,4-diazepan-1-y1}-6-amino-3-pyridazinyl)phenol] | 50 to 500 | ++ (++=30-70%) | 500 to 5000 | 30 to 70 |  |  |  |
| COC1CCN(CC#Cc2nccc(N3CCCN(c4cc(-c5ccccc5O)nnc4N)CC3)n2)CC1 [Compound P-378, 0-[6-amino-5-(4-{2-[3-(4-methoxy-1-piperidyl)-1-propynyl]-4-pyrimidinyl}-1,4-diazepan-1-yl)-3-pyridazinyl]phenol] | 50 to 500 | +++ (+++=>70%) | 50 to 500 | 30 to 70 |  |  |  |
| Nc1nnc(-c2ccccc2O)cc1N1CCCN(c2ccnc(C#CCN3CCCOCC3)n2)CC1 [Compound P-379, 0-[6-amino-5-(4-{2-[3-(1,4-oxazepan-4-yl)-1-propynyl]-4-pyrimidinyl}-1,4-diazepan-1-yl)-3-pyridazinyl]phenol] | 50 to 500 | +++ (+++=>70%) | 50 to 500 | 30 to 70 |  |  |  |
| C[C@@H]1CN(CC#Cc2nccc(N3CCCN(c4cc(-c5ccccc5O)nnc4N)CC3)n2)C[C@H](c2ccccc2)O1 [Compound P-380, 0-{5-[4-(2-{3-[(2R,6S)-2-methyl-6-phenyl-4-morpholinyl]-1-propynyl}-4-pyrimidinyl)-1,4-diazepan-1-yl]-6-amino-3-pyridazinyl}phenol] | 500 to 5000 |  | 500 to 5000 |  |  | ++ (++=30-70%) | < 30 |
| CN(C)CC#Cc1nccc(N2C3CCC2CN(c2cnnc(-c4ccccc4O)c2)C3)n1 [Compound P-381, 0-[5-(8-{2-[3-(dimethylamino)-1-propynyl]-4-pyrimidinyl}-3,8-diazabicyclo[3.2.1]oct-3-yl)-3-pyridazinyl]phenol] | 50 to 500 |  | > 5000 |  |  | ++ (++=30-70%) |  |
| CN(C)CC#Cc1cc(N2C3CCC2CN(c2cc(-c4ccccc4O)nnc2N)CC3)ccn1 (stereo not drawn) [Compound P-382, 0-[6-amino-5-(9-{2-[3-(dimethylamino)-1-propynyl]-4-pyridyl}-3,9-diazabicyclo[4.2.1]non-3-y1)-3-pyridazinyl]phenol] | < 50 |  | < 50 |  |  | +++ (+++=>70%) | > 70 |
| CC(C)OCC#Cc1cc(N2CCN(c3cc(-c4ccccc4O)nnc3N)CC[C@H]2C)ccn1 [Compound P-383, 0-(5-{(R)-4-[2-(3-isopropoxy-1-propynyl)-4-pyridyl]-5-methyl-1,4-diazepan-1-yl}-6-amino-3-pyridazinyl)phenol] | < 50 |  | < 50 |  |  | +++ (+++=>70%) | 30 to 70 |
